# In ChEMBL document CHEMBL1138025, “Nocathiacin I analogues: synthesis, in vitro and in vivo biological activity of novel semi-synthetic thiazolyl peptide antibiotics” (Bioorg Med Chem Lett, 2004):
# Tests used:
# [1] = tested on: Staphylococcus aureus; experiment: In vitro antibacterial activity against methicillin-sensitive Staphylococcus aureus A15090; assay type: functional
# [2] = tested on: Enterococcus faecalis; experiment: In vitro antibacterial activity against methicillin-sensitive Enterococcus faecalis A20688; assay type: functional
# [3] = tested on: Streptococcus pneumoniae; experiment: In vitro antibacterial activity against penicillin-resistant Streptococcus pneumoniae A28272; assay type: functional
# [4] = tested on: Mus musculus; experiment: In vivo efficacy (PD50) against lethal Staphylococcus aureus systemic infection model in mice; assay type: functional; conditions: read-out: PD50
# [5] = Equilibrium water solubility at pH 3.4; assay type: physicochemical
# [6] = Equilibrium water solubility at pH 3.1; assay type: physicochemical
# [7] = Equilibrium water solubility at pH 3.3; assay type: physicochemical
# [8] = Equilibrium water solubility at pH 2.9; assay type: physicochemical
# [9] = Equilibrium water solubility at pH 3.2; assay type: physicochemical
Compound,MIC [1],MIC [2],MIC [3],ED50 [4],solubility thermodynamic [5],solubility thermodynamic [6],solubility thermodynamic [7],solubility thermodynamic [8],solubility thermodynamic [9]
CO/C(C)=C1/NC(=O)[C@H]([C@@H](C)O)NC(=O)c2csc(n2)-c2cc(O)c(-c3nc(C(=O)NC(CNCCc4ccccn4)C(N)=O)cs3)nc2-c2csc(n2)C2COC(=O)c3c4c5c(cccc5n3O)COC(=O)[C@@H](O[C@H]3C[C@](C)(O)[C@H](N(C)C)[C@H](C)O3)[C@@H](OC4)[C@H](NC(=O)c3csc1n3)c1nc(cs1)C(=O)N2 (stereo not given in full),1 µg/mL,1 µg/mL,0.25 µg/mL,2.8 mg/kg,> 10000 µg/mL,,,,
CO/C(C)=C1/NC(=O)[C@H]([C@@H](C)O)NC(=O)c2csc(n2)-c2cc(O)c(-c3nc(C(=O)NC(CNCCN(C)C)C(N)=O)cs3)nc2-c2csc(n2)[C@@H]2COC(=O)c3c4c5c(cccc5n3O)COC(=O)[C@@H](O[C@H]3C[C@](C)(O)[C@H](N(C)C)[C@H](C)O3)[C@@H](OC4)[C@H](NC(=O)c3csc1n3)c1nc(cs1)C(=O)N2 (stereo not given in full),2 µg/mL,4 µg/mL,0.03 µg/mL,4.2 mg/kg,,> 3800 µg/mL,,,
CO/C(C)=C1/NC(=O)[C@H]([C@@H](C)O)NC(=O)c2csc(n2)-c2cc(O)c(-c3nc(C(=O)NC(CN4CCN(CC(=O)O)CC4)C(N)=O)cs3)nc2-c2csc(n2)[C@@H]2COC(=O)c3c4c5c(cccc5n3O)COC(=O)[C@@H](O[C@H]3C[C@](C)(O)[C@H](N(C)C)[C@H](C)O3)[C@@H](OC4)[C@H](NC(=O)c3csc1n3)c1nc(cs1)C(=O)N2 (stereo not given in full),1 µg/mL,1 µg/mL,0.03 µg/mL,> 10 mg/kg,,,> 2600 µg/mL,,
CO/C(C)=C1/NC(=O)[C@H]([C@@H](C)O)NC(=O)c2csc(n2)-c2cc(O)c(-c3nc(C(=O)NC(CN(CCO)CCO)C(N)=O)cs3)nc2-c2csc(n2)[C@@H]2COC(=O)c3c4c5c(cccc5n3O)COC(=O)[C@@H](O[C@H]3C[C@](C)(O)[C@H](N(C)C)[C@H](C)O3)[C@@H](OC4)[C@H](NC(=O)c3csc1n3)c1nc(cs1)C(=O)N2 (stereo not given in full),0.12 µg/mL,0.25 µg/mL,0.01 µg/mL,5 mg/kg,,,,> 1700 µg/mL,
CO/C(C)=C1/NC(=O)[C@H]([C@@H](C)O)NC(=O)c2csc(n2)-c2cc(O)c(-c3nc(C(=O)NC(CNCCOCCOCCO)C(N)=O)cs3)nc2-c2csc(n2)[C@@H]2COC(=O)c3c4c5c(cccc5n3O)COC(=O)[C@@H](O[C@H]3C[C@](C)(O)[C@H](N(C)C)[C@H](C)O3)[C@@H](OC4)[C@H](NC(=O)c3csc1n3)c1nc(cs1)C(=O)N2 (stereo not given in full),0.25 µg/mL,0.5 µg/mL,0.06 µg/mL,4.6 mg/kg,,,> 3100 µg/mL,,
CO/C(C)=C1/NC(=O)[C@H]([C@@H](C)O)NC(=O)c2csc(n2)-c2cc(O)c(-c3nc(C(=O)NC(CNCCOCCOCCOCCN)C(N)=O)cs3)nc2-c2csc(n2)[C@@H]2COC(=O)c3c4c5c(cccc5n3O)COC(=O)[C@@H](O[C@H]3C[C@](C)(O)[C@H](N(C)C)[C@H](C)O3)[C@@H](OC4)[C@H](NC(=O)c3csc1n3)c1nc(cs1)C(=O)N2 (stereo not given in full),1 µg/mL,1 µg/mL,0.25 µg/mL,> 10 mg/kg,,,,,> 2800 µg/mL
CO/C(C)=C1/NC(=O)[C@H]([C@@H](C)O)NC(=O)c2csc(n2)-c2cc(O)c(-c3nc(C(=O)NC(CN4CCOCC4)C(N)=O)cs3)nc2-c2csc(n2)[C@@H]2COC(=O)c3c4c5c(cccc5n3O)COC(=O)[C@@H](O[C@H]3C[C@](C)(O)[C@H](N(C)C)[C@H](C)O3)[C@@H](OC4)[C@H](NC(=O)c3csc1n3)c1nc(cs1)C(=O)N2 (stereo not given in full),0.007 µg/mL,0.01 µg/mL,0.01 µg/mL,0.8 mg/kg,,> 2100 µg/mL,,,
CO/C(C)=C1/NC(=O)[C@H]([C@@H](C)O)NC(=O)c2csc(n2)-c2cc(O)c(-c3nc(C(=O)NC(CN4CCN(C)CC4)C(N)=O)cs3)nc2-c2csc(n2)[C@@H]2COC(=O)c3c4c5c(cccc5n3O)COC(=O)[C@@H](O[C@H]3C[C@](C)(O)[C@H](N(C)C)[C@H](C)O3)[C@@H](OC4)[C@H](NC(=O)c3csc1n3)c1nc(cs1)C(=O)N2 (stereo not given in full),0.25 µg/mL,0.5 µg/mL,0.12 µg/mL,1.4 mg/kg,> 10000 µg/mL,,,,
CO/C(C)=C1/NC(=O)[C@H]([C@@H](C)O)NC(=O)c2csc(n2)-c2cc(O)c(-c3nc(C(=O)NC(CNCCNC(C)=O)C(N)=O)cs3)nc2-c2csc(n2)[C@@H]2COC(=O)c3c4c5c(cccc5n3O)COC(=O)[C@@H](O[C@H]3C[C@](C)(O)[C@H](N(C)C)[C@H](C)O3)[C@@H](OC4)[C@H](NC(=O)c3csc1n3)c1nc(cs1)C(=O)N2 (stereo not given in full),1 µg/mL,4 µg/mL,0.12 µg/mL,> 10 mg/kg,,> 3000 µg/mL,,,
